Experiments:
[1] = test system: HCV replicon 1a (Y93H) mutant; experiment: Cell-based HCV replicon assay (TaqMan), genotype 1a mutant Y93H; conditions: Hepatitis C virus, 72 h, read-out: HCV replicon EC50 1a (Y93H)
Method in brief: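 Replicon cells seeded at 5000 cells/well with compound (10 serial 2-fold dilutions from 250 μM to 1 μM top dose; 0.5% DMSO, 5% FBS) and lysed on day 3. Replicon RNA quantified by multiplex TaqMan RT-PCR (NS5B amplicon, GAPDH control); ΔCT versus concentration fitted to sigmoid dose-response. Chimeras carry patient-isolate NS5A.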

[2] = Pharmacokinetic analysis in rats; assay type: in vivo, Male Sprague-Dawley rats; conditions: Rat, dihydrochloride salt, 5 mpk/PO, 2.5 mpk/IV
Method: Various pharmacokinetic parameters for compound 56 were measured in rats, dogs and monkeys as described below.
Male Sprague-Dawley rats (Charles River, Co.) were pre-cannulated (femoral artery) in order to facilitate precise blood sampling times, to increase throughput and to reduce the stress on the animals caused by serial bleedings. Following an overnight fast, rats were dosed with the dihydrochloride salt of compound 56 orally at 5 mg/kg as a suspension in 0.4% hydroxylpropyl methylcellulose (HPMC) or intravenously at 2.5 mg/kg as a solution in 20% hydroxypropyl-β-cyclodextrin (20% HPβCD). Blood was collected into heparin-containing tubes serially from each animal at 0.25, 0.5, 1, 2, 4, 6, 8, 24 and 48 hr (PO), and 0.167, 0.25, 0.5, 1, 2, 4, 6, 8, 24 and 48 hr (IV) post-dosing and centrifuged to generate plasma. The plasma samples were stored at […] until analysis.
Collected plasma samples were analyzed for the presence of compound 56 using LC-MS/MS as described below.
The HPLC/API-MS/MS system for the example data consisted of a HPLC pumping system and a auto sampler with the sample tray refrigeration option connected directly to a triple quadrupole mass spectrometer with an API source. Typical HPLC methods for the example data was based on a fast gradient of two solvents: solvent A consisted of 0.1% formic acid in water, and solvent B consisted of 0.1% formic acid in acetonitrile. A fast linear gradient (start at 90% A for 0.2 min, ramp to 95% B from 0.2 to 0.5 min, hold at 95% B […], then ramp back to 90% A from 1.0 to 1.1 min, then hold at, […] from 1.1 to 1.2 min) was used. The flow rate for the HPLC system was set to 1 mL/min throughout the HPLC gradient; the HPLC column was a Halo C18 column (2.7 micron particle size, 50×2.1 mm). The example compounds were analyzed by positive ion atmospheric pressure chemical ionization tandem mass spectrometry (APCI-MS/MS). As a general procedure, selected reaction monitoring (SRM) methods were developed for each compound prior to analysis of the plasma samples. Normally, the individual SRM transitions were based on a fragmentation from the protonated molecule ([MH].) to a characteristic product ion.
Using the methods described above, the following pharmacokinetic parameters were calculated in rats, dogs and monkeys and the results are summarized in the table below.

For `COC(=O)N[C@H](C(=O)N1CC(F)(F)C[C@H]1c1ncc(-c2ccc(-c3ccc4c(ccc5nc([C@@H]6C[Si](C)(C)CN6C(=O)[C@@H](NC(=O)OC)C(C)C)[nH]c54)c3)cc2)[nH]1)C(C)C` [Compound 56], which EC50 [1] is on record?
Its EC50 is 0.046 µM.

And the “Effective Half-Life” value [2]?
Its value is 7.6 h.

What about the “Systemic Clearance” value [2] of the same molecule?
The value was 0.336 L/h/kg.

And the “Volume of Distribution” value [2]?
Its value is 3.7 L/kg.

And the “Oral Bioavailability” value ([2]; dose-normalized AUC between PO and IV)?
The value was 28%.
